From patent US5112818A, “2-(2-cyclopropylpyrrolidin-4-ylthio)carbapenhem derivatives” (Banyu Pharmaceutical Co., Ltd., priority 1989, dated 1992)
In brackets after ≈: the same amount, converted by molar mass. Where two headings read alike, the source gives them in different places.

Columns and labels:
DHP-I [1] = assay: DHP-I susceptibility (method by Kropp et al.); details: ratio to imipenem (=1.0); smaller value = higher stability
From the text: (§2) The DHP-I susceptibility was quantitatively analyzed by the method by Kropp et al., Antimicrob.,- Agents Chemother., vol. 22, p. 62-70 (1982), whereby the smaller the numerical value representing the ratio to imipenem (=1.0), the higher the stability.

[2] = in words; background art; cited from earlier work
Meth-R. S. aureus = assay: relative antibacterial potency, disc diffusion test (Bauer et al.); type: cell-based; details: ratio to thienamycin (=1.0); larger value = higher activity
Experimental: The compounds of the present invention show strong antibacterial activities against various gram positive bacteria and gram negative bacteria. As representative examples, the antibacterial activities of the compounds of the present invention described in the Examples, were measured by a disc diffusion test by the method of Bauer et al. (Amer. J. Clin. Pathol., vol. 45, p. 493 (1966)). Thienamycin or imipenem was used as the internal standard.
MIC of each test compound was calculated from the diameter of the inhibition ring formed by the disc containing the test compound by using the calculation formula reported by Humphrey and Lightbown (J. Gen. Microbiol., vol. 7, p. 129 (1952)). For each microorganism, a geometrical average of MIC was obtained, and the activity ratio to thienamycin was calculated.
The antibacterial activities are represented by the ratio to thienamycin (=1.0), whereby the larger the numerical value, the higher the activities.

[3] = test system: highly methicillin resistant Staphylococcus aureus; details: in words; clinical field; cited from earlier work
[4] = test system: gram positive bacteria and gram negative bacteria; details: in words, cited from earlier work
renal dehydropeptidase I = details: cited from earlier work
β-lactamase = details: in words; cited from earlier work
[5] = test system: imipenem resistant Pseudomonas aeruginosa; details: in words; clinical field; cited from earlier work
kidney = details: in words; due to the decomposition products; cited from earlier work
DHP-I [6] = test system: DHP-I
From the text: as §2

[7] = test system: methicillin resistant Staphylococcus aureus; details: in words; background art; cited from earlier work
S. aureus 209P NIHJ JC1 = assay: in vitro antibacterial activity, agar plate dilution method (MIC); type: cell-based; details: Staphylococcus aureus, 10^6 CFU/ml, 37° C., 16 hours
Experimental: (§1) One platinum loopful of each test microorganism incubated overnight in Mueller Hinton broth, was inoculated to Mueller Hinton agara (inoculum size: 10^6 CFU/ml). Such culture media contained antibacterial agents in various concentrations. After incubation at 37° C. for 16 hours, the minimum inhibitory concentrations (MIC: μg/ml) were measured.

S. aureus MB4970 = assay: as above; type: cell-based; details: Staphylococcus aureus, 10^6 CFU/ml, 37° C., 16 hours
Experimental: as §1

S. aureus JS1 = assay: as above; type: cell-based; details: Staphylococcus aureus; 10^6 CFU/ml; 37° C., 16 hours; S. aureus JS1, lactamase producing microorganism
Experimental: as §1

[8] = in words; cited from earlier work

C[C@@H](O)[C@H]1C(=O)N2C(C(=O)O)=C(SCCN=CN)C[C@H]12 [imipenem]
DHP-I susceptibility (DHP-I [1]): 1.0 | chemical stability [2]: remarkably improved over thienamycin | Relative antibacterial potency, Meth-R. S. aureus (Meth-R. S. aureus): 2.57 | treating effects against imipenem-resistant highly methicillin resistant Staphylococcus aureus [3]: does not show adequate treating effects | antibacterial activities relative to thienamycin ([4]; various types of bacteria): equal or higher level than thienamycin | decomposition by / stability against DHP-I (renal dehydropeptidase I; in words, background art): likely to be decomposed by DHP-I in the human kidney | β-lactamase resistance (β-lactamase): has β-lactamase resistance | treating effects against imipenem resistant Pseudomonas aeruginosa [5]: does not show adequate treating effects | toxicity against the kidney (kidney): presents toxicity against the kidney due to the decomposition products

C[C@@H](O)[C@H]1C(=O)N2C(C(=O)O)=C(S[C@@H]3CN[C@H](C(=O)N(C)C)C3)[C@H](C)[C@H]12 [meropenem]
DHP-I susceptibility (DHP-I [6]): 0.12 | Relative antibacterial potency, Meth-R. S. aureus (Meth-R. S. aureus): 3.15 | antibacterial activities against highly methicillin resistant Staphylococcus aureus [7]: not adequate | decomposition by / stability against DHP-I (renal dehydropeptidase I): stability against DHP-I substantially improved

C[C@@H](O)[C@H]1C(=O)N2C(C(=O)O)=C(S[C@@H]3CN[C@H](C4CC4C(N)=O)C3)[C@H](C)[C@H]12 (single isomer, unassigned) [Example 6]
MIC (S. aureus 209P NIHJ JC1): 0.025 µg/mL (≈ 0.0632 µM) | MIC (S. aureus MB4970): 0.05 µg/mL (≈ 0.126 µM) | MIC (S. aureus JS1): 0.78 µg/mL (≈ 1.97 µM) | Relative antibacterial potency, Meth-R. S. aureus (Meth-R. S. aureus): 5.41

C[C@@H](O)[C@H]1C(=O)N2C(C(=O)O)=C(SCCN)C[C@H]12 [thienamycin]
chemical stability [2]: chemically unstable | antibacterial activities ([4]; gram positive and gram negative bacteria): strong antibacterial activities over a wide range against gram positive bacteria and gram negative bacteria | recovery rate in the urine [8]: low | decomposition by / stability against DHP-I (renal dehydropeptidase I; in words, background art): likely to be decomposed by a certain enzyme in vivo such as renal dehydropeptidase I
